{"source": "paper PMC5348030", "about": "(Nature chemical biology, 2016)", "origin": "cited, not measured here", "system": "HIV integrase", "data": [{"smiles": "Cc1nnc(C(=O)NC(C)(C)c2nc(C(=O)NCc3ccc(F)cc3)c(O)c(=O)n2C)o1", "note": "[raltegravir]", "values": [{"measurement": "residence time on its target", "result": 4.8, "unit": "min"}]}]}
